Patent US11364208B2, “Topical compositions” (DSM IP ASSETS B.V., priority 2017, dated 2022)

How the values were obtained:
[1] = test system: Aspergillus brasiliensis; test: Antimicrobial efficacy in analogy to challenge test NF EN ISO11930, Aspergillus brasiliensis; assay type: cell-based; conditions: 24 h, 22° C.; for Aspergillus brasiliensis colony count: initial count 10000 cfu/ml
Protocol: (§1) The wells were contaminated with Malassezia furfur, Propionibacterium acnes, respectively Aspergillus brasiliensis to obtain the initial contamination as outlined in table 1, 2 and 3. […] The counting of the (remaining) population was carried out 24 h after contamination.
(The term “Log reduction” is a well-known mathematical term used to show the relative number of cells, germs, microbes, etc., reduced in or on something, e.g. a 2 log reduction means the number of microbes is 100 times smaller and a 3 log reduction means the number of microbes is 1000 times smaller).

[2] = test system: Malassezia furfur; test: Antimicrobial efficacy in analogy to challenge test NF EN ISO11930, Malassezia furfur; assay type: cell-based; conditions: for Δ (change of microorganism count t = 0 h to t = 24): 24 h, 0.5 wt.-% of each active; for Δ (change of microorganism count t = 0 h to t = 24) / Malassezia furfur colony count: 22° C., initial count 3300 cfu/ml; for Malassezia furfur colony count: 24 h after contamination, physiological serum 0.85 wt.-% NaCl, 0.5 wt.-% of each active (0.5 wt.-% Erythrulose corresponds to 0.4 wt.-% of active)
Protocol: as §1

[3] = 0.5 wt.-% Erythrulose (corresponds to 0.4 wt.-% of active)
[4] = 0.4 wt.-% p-Hydroxyacetophenone

SMILES	Log step reduction [1, 3]	Aspergillus brasiliensis colony count [1, 3] [cfu/ml]	Δ (change of microorganism count t = 0 h to t = 24) [2]	Malassezia furfur colony count [2] [cfu/ml]	anti-fungal effect against Malassezia furfur (in words) ([2]; concentration of 0.5%)	Log step reduction [1, 4]	Aspergillus brasiliensis colony count [1, 4] [cfu/ml]
O=C(CO)[C@@H](O)CO [Erythrulose, L-(+)-Erythrulose]	2	100	±0%	3300	does not exert any anti-fungal effect		
CC(=O)c1ccc(O)cc1 [p-Hydroxyacetophenone, 1-(4-hydroxyphenyl)-ethanone]			−83%	550		2	100
